Measurements: patent publication US11053207B2, “Indoleamine-2,3-dioxygenase inhibitor and preparation method therefor” (SHANGHAI INSTITUTE OF ORGANIC CHEMISTRY, CHINESE ACADEMY OF …, priority 2014, dated 2021)

Assays:
[1] = molecular target: IDO enzyme (Homo sapiens (Human), UniProt P14902); assay: IDO enzyme inhibitory activity; type: biochemical; conditions: OD321 nm, 60 min
Method: Firstly, the IDO gene was amplified by PCR, the PCR amplification products were recovered, and then the pET28a plasmid (purchased from Shanghai Baoman Biotechnology Co., Ltd.) and the IDO gel recovery products were digested with EcoR I and Xho I restriction endonucleases (37° C., digestion for 2 h), electrophorized and recovered. The recovered products were ligated overnight by a T4 ligase and then the ligation products were added to DH5α competent cells, placed on ice for 30 min, heat-shocked at 42° C. for 90 s, cultured on a shaker, and seeded to a plate. Monoclonies were picked, identified by PCR and then by sequencing.
The constructed BL21 containing the pET28a-IDO plasmid was cultured at 37° C. to OD600=0.6-0.8, and a final concentration of 7 μM of chlorine methemoglobin and 1 mM of IPTG (isopropyl-β-D-thiogalactoside) were added for induction at 28° C. for 4 h; after the induction, the cell was centrifuged at 6000 rpm at 4° C., the collected cells were washed once with 20 mM PBS (pH6.5), and centrifuged and collected again.
The collected cells were resuspended with a lysis solution (20 mM PBS pH 6.5), ultrasonically lysed (40% of power, lysis for 20 min, placed on ice), the lysed bacteria were centrifuged at 13000 rpm for 15 min, precipitate was discarded and the supernatant was maintained; the nickel column was equilibrated with the lysis solution (20 mM PBS pH 6.5) for 3 column volumes, and then the lysis supernatant was loaded onto the nickel column; after loading, four column volumes of a rinsing solution (20 mM PBS pH 6.5, 20 mM imidazole) were used for washing, and finally protein was eluted with eluent (20 mM PBS pH 6.5, 250 mM imidazole); the eluted protein solution was dialyzed for 4 h, and the dialysis solution was 20 mM PBS, pH 6.5. After the dialysis, the protein sample was concentrated, packed, flash frozen by liquid nitrogen, and stored at −80° C. for further use.
Firstly, the compound was subject to a 3-fold gradient dilution. 1 μL of each concentration was added to a 96-well plate; 50 μL of the IDO enzyme solution (final concentration 600 ng/100μL) was added: 25 μL of substrate 1 mixture solution was added, 25 μL of substrate 2 mixture solution was added to initiate the reaction. Finally, the plate was read at OD321 nm, 60 min.

[2] = system: Hela cells; assay: Test for cell activity (Hela cells, interferon γ, kynurenine read at 480 nm); type: cell-based; conditions: human interferon γ 50 ng/mL, 48 h
Method: Hela cells (100 μL) were inoculated on a 96-well plate at an inoculation amount of 5×10^3 per well and grown overnight. The next day, after the compound was diluted, 1 μL was added to a 96-well plate and then 100 μL of medium containing human interferon y (final concentration of 50 ng/mL) was added to the 96-well plate to allow the final volume to be 200 μL. 48 h after incubating, 140 μL of supernatant in each well was transferred to a new 96-well plate. 10 μL of 6.1 N trichloroacetic acid was added to each well and mixed and incubated at 50° C. for 30 min, IDO catalyzed N-formyl canine urea to become canine urea. The reaction mixture was centrifuged at 2500 rpm for 10 minutes to remove the precipitate. 100 μL of supernatant in each well was transferred to a new 96-well plate and mixed with 100 μL of 2% dimethylaminobenzaldehyde acetic acid solution. After the canine urea was separated, the value was measured at 480 nm using a SPECTRAmax i3 reader.

IDO enzyme, sequence (P14902 whole entry): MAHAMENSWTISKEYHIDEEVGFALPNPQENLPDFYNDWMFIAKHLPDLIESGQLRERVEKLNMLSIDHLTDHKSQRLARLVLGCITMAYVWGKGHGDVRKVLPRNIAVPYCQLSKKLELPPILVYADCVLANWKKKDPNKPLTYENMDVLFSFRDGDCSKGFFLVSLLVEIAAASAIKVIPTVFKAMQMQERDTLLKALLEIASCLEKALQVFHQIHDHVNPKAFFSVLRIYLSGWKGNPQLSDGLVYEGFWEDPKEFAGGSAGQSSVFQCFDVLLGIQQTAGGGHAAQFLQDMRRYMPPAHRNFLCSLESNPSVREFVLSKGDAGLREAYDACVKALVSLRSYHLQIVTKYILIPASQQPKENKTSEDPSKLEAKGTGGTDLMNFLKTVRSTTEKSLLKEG

With CS(=O)(CCNc1nonc1/C(=N/O)Nc1ccc(F)c(Br)c1)=NC#N (single isomer, unassigned) [compound 6B] the IC50 [1] was under 82 nM and the IC50 [2] was 0.6 nM.
With CS(=N)(=O)CCCNc1nonc1/C(=N/O)Nc1ccc(F)c(Br)c1 (racemic) [compound 2, (±)(Z)—N-(3-bromo-4-fluorophenyl)-N′-hydroxy-4-((3-(thio-methylsulfoxideimine)propyl)amino)-1,2,5-oxadiazole-3-carboxamidine] the IC50 [1] was under 3000 nM and the IC50 [2] was under 100 nM.
In the case of C[S@](=N)(=O)CCNc1nonc1/C(=N/O)Nc1ccc(F)c(Br)c1 [compound 1B], the IC50 [1] is reported as under 5200 nM and the IC50 [2] is reported as under 80 nM.
Work on CS(=O)(CCCCNc1nonc1/C(=N/O)Nc1ccc(F)c(Cl)c1)=NC#N (racemic) [compound 12, (±)(Z)—N-(3-chloro-4-fluorophenyl)-N′-hydroxy-4-((4-(thio-methylsulfoxidecyanoamine)butyl)amino)-1,2,5-oxadiazole-3-carboxamidine] yielded an IC50 [1] of under 18000 nM and an IC50 [2] of 2.8 nM.
CS(=N)(=O)CCCCNc1nonc1/C(=N/O)Nc1ccc(F)c(Br)c1 (racemic) [compound 3, (±)(Z)—N-(3-bromo-4-fluorophenyl)-N′-hydroxy-4-((4-(thio-methylsulfoxideimine)butyl)amino)-1,2,5-oxadiazole-3-carboxamidine] gave an IC50 [1] of 74 nM and an IC50 [2] of 8 nM.
CC(C)(C)C(=O)O/N=C(\Nc1ccc(F)c(Br)c1)c1nonc1NCCS(C)(=O)=NC#N (racemic) [compound 15, (±)(Z)—N-(3-bromo-4-fluorophenyl)-N′-hydroxy-4-((2-(thio-methylsulfoxidecyanoamine)ethyl)amino)-1,2,5-oxadiazole-3-trimethyl acetate] showed an IC50 [1] of 360 nM and an IC50 [2] of 47 nM.
In the case of C[S@@](=N)(=O)CCNc1nonc1/C(=N/O)Nc1ccc(F)c(Br)c1 [compound 1A], the IC50 [1] is reported as under 5600 nM and the IC50 [2] is reported as under 70 nM.
With CS(=O)(CCCCNc1nonc1/C(=N/O)Nc1ccc(F)c(Br)c1)=NC#N (racemic) [compound 11, (±) (Z)—N-(3-bromo-4-fluorophenyl)-N′-hydroxy-4-((4-(thio-methylsulfoxidecyanoamine)butyl)amino)-1,2,5-oxadiazole-3-carboxamidine] the IC50 [1] was 55 nM and the IC50 [2] was 7.6 nM.
CS(=N)(=O)CCCNc1nonc1/C(=N/O)Nc1cccc(S(F)(F)(F)(F)F)c1 (racemic) [compound 8] gave an IC50 [1] of under 14000 nM and an IC50 [2] of under 800 nM.
Molecule CS(=O)(CCCNc1nonc1/C(=N/O)Nc1ccc(F)c(Cl)c1)=NC#N (racemic) [compound 10, (±) (Z)—N-(3-chloro-4-fluorophenyl)-N′-hydroxy-4-((3-(thio-methylsulfoxidecyanoamine)propyl)amino)-1,2,5-oxadiazole-3-carboxamidine] has an IC50 [1] of under 5000 nM and an IC50 [2] of 2.8 nM.
CC(C)C(=O)O/N=C(\Nc1ccc(F)c(Br)c1)c1nonc1NCCS(C)(=O)=NC#N (racemic) [compound 14, (±)(Z)—N-(3-Br-4-fluorophenyl)-N′-hydroxy-4-((2-(thio-methylsulfoxidecyanoamine)ethyl)amino)-1,2,5-oxadiazole-3-isobutyrate] was tested, and the IC50 [1] was 120 nM and the IC50 [2] was 2.2 nM.
CS(=N)(=O)CCNc1nonc1/C(=N/O)Nc1ccc(F)c(Br)c1 (racemic) [compound 1, (±) (Z)—N-(3-bromo-4-fluorophenyl)-N′-hydroxy-4-((2-(thio-methylsulfoxideimine)ethyl)amino)-1,2,5-oxadiazole-3-carboxamidine] gave an IC50 [1] of 22 nM and an IC50 [2] of 40 nM.
For CS(=O)(CCCNc1nonc1/C(=N/O)Nc1ccc(F)c(Br)c1)=NC#N (racemic) [compound 9, (±) (Z)—N-(3-bromo-4-fluorophenyl)-N′-hydroxy-4-((3-(thio-methylsulfoxidecyanoamine)propyl)amino)-1,2,5-oxadiazole-3-carboxamidine], the IC50 [1] was 35 nM and the IC50 [2] was 4.7 nM.
c1ccc(-c2cnc[nH]2)cc1 [5-phenyl-1-imidazole, reference compound] showed an IC50 [2] of over 50000 nM.
Molecule CCC(C)(C)C(=O)O/N=C(\Nc1ccc(F)c(Br)c1)c1nonc1NCCS(C)(=O)=NC#N (racemic) [compound 13, (±) (Z)—N-(3-bromo-4-fluorophenyl)-N′-hydroxy(thio-methylsulfoxidecyanoamine)ethyl)amino)-1,2,5-oxadiazole-3-(2,2-dimethyl) butyrate] has an IC50 [1] of 180 nM and an IC50 [2] of 14 nM.
CS(=O)(CCNc1nonc1/C(=N/O)Nc1ccc(F)c(Br)c1)=NC#N (single isomer, unassigned) [compound 6A] gave an IC50 [1] of under 88 nM and an IC50 [2] of 0.3 nM.
For CS(=N)(=O)CCCCNc1nonc1/C(=N/O)Nc1cccc(C(F)(F)F)c1 (racemic) [compound 5, (±)(Z)—N′-hydroxy-4-((4-(thio-methylsulfoxideimine)butyl)amino)-N-(3-(trifluoromethyl)phenyl)-1,2,5-oxadiazole-3-carboxamidine], the IC50 [1] was under 3600 nM and the IC50 [2] was under 76 nM.
In the case of N=S(=O)(CCNc1nonc1/C(=N/O)Nc1ccc(F)c(Br)c1)c1ccccc1 (racemic) [compound 7, (±) (Z)—N-(3-bromo-4-fluorophenyl)-N′-hydroxy-4-((2-(thio-phenylsulfoxideimine)ethyl)amino)-1,2,5-oxadiazole-3-carboxamidine], the IC50 [1] is reported as under 2600 nM and the IC50 [2] is reported as under 260 nM.
CS(=N)(=O)CCCCNc1nonc1/C(=N/O)Nc1ccc(F)c(C(F)(F)F)c1 (racemic) [compound 4, (±)(Z)—N-(4-fluoro-3-(trifluoromethyl)phenyl)-N′-hydroxy-4-((4-(thio-methylsulfoxideimine)butyl)amino)-1,2,5-oxadiazole-3-carboxamidine] showed an IC50 [1] of under 19000 nM and an IC50 [2] of under 500 nM.
